# pKd: −log10 of the molar value.
# Columns and labels:
# RAR gamma [1] = molecular target: T1, RAR gamma (Homo sapiens, UniProt P13631); assay: Transactivation test (luciferase reporter, apparent Kd by Schild regression against a reference antagonist), RAR gamma; type: cell-based; conditions: HeLa stable transfectants, ERE-βGlob-Luc reporter, RAR gamma; apparent Kd; read-out: RAR gamma Kdapp
# T1 construct: RAR gamma Kdapp; apparent Kd; It drives the ERE-βGlob-Luc reporter
# T1 sequence (P13631 185-419 limits assumed): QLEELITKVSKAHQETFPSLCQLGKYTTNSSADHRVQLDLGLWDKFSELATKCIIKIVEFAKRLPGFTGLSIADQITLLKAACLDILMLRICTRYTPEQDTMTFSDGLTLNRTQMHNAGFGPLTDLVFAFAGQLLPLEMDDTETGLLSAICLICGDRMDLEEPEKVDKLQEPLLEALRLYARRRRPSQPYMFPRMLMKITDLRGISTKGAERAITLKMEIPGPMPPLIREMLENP
# Description: (§1) The activation of the receptors by an agonist (activator) in HeLa cells results in the expression of a reporter gene, luciferase, which, in the presence of a substrate, generates light. It is thus possible to measure the activation of the receptors by quantifying the luminescence produced after incubation of the cells in the presence of a reference antagonist. The activating products displace the antagonist from its site, thus allowing activation of the receptor. The activity is measured by quantifying the increase in the light produced. This measurement makes it possible to determine the activator activity of the compound that can be used in the invention.
# (§2) In this study, a constant which is the affinity of the molecule for the receptor is determined. Since this value can fluctuate according to the basal activity and the expression of the receptor, it is designated apparent Kd (KdApp).
# (§3) In order to determine this constant, “cross curves” of the test product (4′-(3′-hydroxypropyl)-3′-(5,5,8,8-tetramethyl-5,6,7,8-tetrahydronaphthalen-2-yl)biphenyl-4-carboxylic acid and 4′-(2,3-dihydroxypropyl)-3′-(5,5,8,8-tetramethyl-5,6,7,8-tetrahydronaphthalen-2-yl)biphenyl-4-carboxylic acid), against a reference antagonist otherwise known as reference ligand, 4-(5,5-dimethyl-8-p-tolyl-5,6-dihydronaphthalen-2-ylethynyl)benzoic acid, are produced. The test product is used at 10 concentrations and the reference antagonist at 7 concentrations. In each well (of a 96-well plate), the cells are in contact with one concentration of the test product and one concentration of the reference antagonist. […]
# (§4) These cross curves make it possible to determine the AC50 values (concentration at which 50% activation of the receptor is observed) of the reference ligand at various concentrations of test product. These AC50 values are used to calculate the Schild regression by plotting a straight line corresponding to the Schild equation (“Quantitation in receptor pharmacology” Terry P. Kenakin, Receptors and Channels, 2001, 7, 371-385).
# (§5) In the case of an agonist, the AC50 is calculated by plotting the curve of the product at the concentration of the reference ligand giving 80% activation. The percentage activation which corresponds to the maximum level of activity obtained is also measured. […]
# (§6) The culture medium is removed by turning the plates over, and […] of a 1:1 PBS (phosphate buffered solution)/luciferin mixture are added to each well. After 5 minutes, the plates are read using the luminescence reader.
# RAR gamma [2] = assay: as above; type: cell-based; conditions: statement in words, from the Kdapp values of the transactivation test
# Description: as §1, §2, §3, §4, §5, §6
# RAR beta = molecular target: T2, RAR beta (Homo sapiens, UniProt P10826); assay: Transactivation test (luciferase reporter, apparent Kd by Schild regression against a reference antagonist), RAR beta; type: cell-based; conditions: HeLa stable transfectants, ERE-βGlob-Luc reporter, read-out: RAR beta Kdapp
# T2 construct: It drives the ERE-βGlob-Luc reporter
# T2 sequence (P10826 183-417 limits assumed): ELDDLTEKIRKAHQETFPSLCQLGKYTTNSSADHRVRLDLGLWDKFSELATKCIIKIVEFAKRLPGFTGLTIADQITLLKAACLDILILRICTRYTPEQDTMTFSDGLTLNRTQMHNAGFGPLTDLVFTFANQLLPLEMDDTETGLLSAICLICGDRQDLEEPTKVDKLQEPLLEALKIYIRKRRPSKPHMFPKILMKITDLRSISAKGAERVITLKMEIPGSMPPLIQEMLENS
# Description: as §1
# (§7) In this study, a constant which is the affinity of the molecule for the receptor is determined. […]
# as §4
# (§8) In the case of an agonist, the AC50 is calculated by plotting the curve of the product at the concentration of the reference ligand giving 80% activation. […]
# RAR alpha = molecular target: T3, RAR alpha (Homo sapiens, UniProt P10276); assay: Transactivation test (luciferase reporter, apparent Kd by Schild regression against a reference antagonist), RAR alpha; type: cell-based; conditions: HeLa stable transfectants, ERE-βGlob-Luc reporter, read-out: RAR alpha Kdapp
# T3 construct: It drives the ERE-βGlob-Luc reporter
# T3 sequence (P10276 183-417 limits assumed): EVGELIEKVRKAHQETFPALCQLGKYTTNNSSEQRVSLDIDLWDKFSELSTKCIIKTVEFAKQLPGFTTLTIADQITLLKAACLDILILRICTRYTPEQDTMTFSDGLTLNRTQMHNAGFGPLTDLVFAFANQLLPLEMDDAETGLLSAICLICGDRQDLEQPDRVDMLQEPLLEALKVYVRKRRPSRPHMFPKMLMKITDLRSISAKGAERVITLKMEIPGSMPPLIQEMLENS
# Description: as §1, §7, §4, §8
SMILES,melting point,pKd (RAR gamma [1]),selectivity for the RAR gamma receptor subtype in comparison with RAR alpha and RAR beta (RAR gamma [2]),pKd (RAR beta),pKd (RAR alpha)
"CC1(C)CCC(C)(C)c2cc(-c3cc(-c4ccc(C(=O)O)cc4)ccc3CCCO)ccc21 [Example 1, 4′-(3-hydroxypropyl)-3′-(5,5,8,8-tetramethyl-5,6,7,8-tetrahydronaphthalen-2-yl)biphenyl-4-carboxylic acid]",203 °C,10.00,better selectivity of these compounds for the RAR gamma receptor subtype,8.70,7.82
"CC1(C)CCC(C)(C)c2cc(-c3cc(-c4ccc(C(=O)O)cc4)ccc3CC(O)CO)ccc21 (stereo not drawn) [Example 2, 4′-(2,3-dihydroxypropyl)-3′-(5,5,8,8-tetramethyl-5,6,7,8-tetrahydronaphthalen-2-yl)biphenyl-4-carboxylic acid]",,9.30,better selectivity of these compounds for the RAR gamma receptor subtype,7.82,7.22

# — patent US8106235B2, “Biphenyl compound selective agonists of gamma RAR receptors” (Galderma Research & Development, priority 2005, dated 2012)
